Assay results as given in patent publication US8703698B2, “Compositions and methods for treating atherosclerosis” (The University of Chicago, priority 2003, dated 2014).
Where no end group is shown, it is not given here. [ ]: non-standard residue; d: D form.

Experiments:
[1] = system: J774 macrophages; experiment: [3H]cholesterol efflux from cholesterol-loaded J774 macrophages in tissue culture; assay type: cell-based, mouse; conditions: for cholesterol export enhancing activity relative to the human SAA1.1 78-96 containing liposomal formulation (FIG. 9) / cholesterol export enhancing activity, time course (FIG. 9): liposomal formulations, mouse J774 cells; for rate of [3H]cholesterol efflux into medium containing HDL: pre-incubation with liposomes containing 0.5 μM peptide, HDL as acceptor
[2] = system: cholesterol ester hydrolase; experiment: Rate of hydrolysis of cholesteryl ester in cholesterol-laden J774 cells (cholesterol ester hydrolase activity); assay type: cell-based, murine; conditions: liposomes containing 0.5 μl synthetic peptide; J774 cells; Sandoz 58-035 present
Description: Identification of the domain of SAA2.1 that is responsible for enhancing cholesterol ester hydrolase activity was performed in J774 cells preloaded with radio-labeled cholesteryl esters. These experiments were performed in the presence of Sandoz 58-035, an inhibitor of acyl CoA:cholesterol acyl transferase activity, to prevent re-esterification of liberated cholesterol and [^14C]oleate. Incubations proceeded for times ranging from 0 to 24 hours, following which the remaining quantities of [^14C]-labeled cholesteryl oleate in cells were measured to determine the rate of hydrolysis of cholesteryl ester. […] However, an equivalent amount of liposomes containing the synthetic peptide corresponding to amino acid residues 74-103 of murine SAA2.1 caused a 3-fold increase in cholesterol ester hydrolase activity in these cholesterol-laden murine cells. Newly confluent J774 cells were labeled with [^14C]-oleate during cholesterol loading with red blood cell membranes as described above. Cells were then incubated for up to 24 hours with 2 mL of DMEM containing 5% LPDS and 50 μg/mL of either native HDL, SAA-HDL, liposomes containing 2 μmoles of apoA-1, SAA1.1 or 2.1, or liposomes containing 0.5:mol synthetic peptides corresponding to amino acid residues 1-20 (SEQ ID NO:1), 21-50 (SEQ ID NO:2), 51-80 (SEQ ID NO:3) and 74-103 (SEQ ID NO:4) of murine SAA2.1. To determine the rate of cholesteryl ester hydrolysis, 2 μg/mL of the acyl CoA:cholesterol acyl transferase inhibitor Sandoz 58-035 (propanimide, 3-(decyldimethylsilyl)-N-[2-(4-methylphenyl)-1-phenylethyl]-(9Cl) was added during incubation with lipoproteins or liposomes to prevent […] and free cholesterol. To examine whether or not the rate of cholesteryl ester hydrolysis involved the lysosomal cholesteryl ester hydrolase, the cells were cultured in the presence of 50 μg/mL of either native HDL and chloroquine or SAA-HDL and chloroquine (100:M). Chloroquine is an agent that neutralizes the lysosomal proton gradient. At various time points, cellular lipids were extracted and analyzed for cholesteryl ester radioactivity as described above.

[3] = target: T1, acyl CoA:cholesterol acyl transferase (Mus musculus, UniProt Q61263); experiment: Incorporation of [14C]oleate into cholesteryl ester in cholesterol-laden macrophages (ACAT activity); assay type: cell-based, murine; conditions: liposomes containing 0.5 μM synthetic peptide; 6 hour incubation; cholesterol-laden murine cells
T1 construct: host or cells: J774 mouse macrophages, cholesterol-loaded
T1 sequence (Q61263 1-540): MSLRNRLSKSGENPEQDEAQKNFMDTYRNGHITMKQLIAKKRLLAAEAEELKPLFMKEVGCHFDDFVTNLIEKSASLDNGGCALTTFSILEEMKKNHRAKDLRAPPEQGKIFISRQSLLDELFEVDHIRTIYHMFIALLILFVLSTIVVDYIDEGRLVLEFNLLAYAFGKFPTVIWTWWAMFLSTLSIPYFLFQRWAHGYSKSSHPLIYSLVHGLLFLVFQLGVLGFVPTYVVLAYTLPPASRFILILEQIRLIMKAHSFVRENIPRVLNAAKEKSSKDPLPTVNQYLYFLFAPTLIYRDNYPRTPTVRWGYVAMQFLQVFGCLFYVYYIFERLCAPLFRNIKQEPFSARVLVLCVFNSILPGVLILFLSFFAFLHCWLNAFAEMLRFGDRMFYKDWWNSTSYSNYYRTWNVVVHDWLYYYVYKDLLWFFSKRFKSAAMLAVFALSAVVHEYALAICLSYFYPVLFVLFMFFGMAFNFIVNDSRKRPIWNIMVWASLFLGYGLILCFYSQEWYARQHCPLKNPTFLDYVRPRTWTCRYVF
Description: The incorporation of [^14C]oleate into cholesteryl ester was used as a measure of acyl CoA:cholesterol acyl transferase activity to identify compositions inhibiting the enzyme activity. The relative acyl CoA:cholesterol acyl transferase activity was determined in cholesterol-laden murine cells that had been cultured in medium in the absence of liposomes or in the presence of protein-free liposomes or liposomes containing 0.5 μM synthetic peptides corresponding to amino acids 1-20, 21-50, 51-80 and 74-103 of murine SAA2.1.
To load the cells with cholesterol, nearly confluent mono-layers were washed 3 times with phosphate buffered saline containing 2 mg/mL fatty acid-free bovine serum albumin (PBS-BSA) and incubated for 5 hours in DMEM supplemented with 5% lipoprotein-depleted serum (LPDS) (d>1.25 g/mL) and 175 μg of red blood cell membrane cholesterol. For the purpose of pool equilibration of added cholesterol, cell cultures were rinsed twice with PBS-BSA and incubated overnight in DMEM containing 5% LPDS. The relative activity of acyl CoA:cholesterol acyl transferase was determined in cholesterol-laden cells that had been cultured in medium containing no liposomes, protein-free liposomes or liposomes containing 0.5:M synthetic peptides corresponding to amino acid residues 1-20 (SEQ ID NO:1), 21-50 (SEQ ID NO:2), 51-80 (SEQ ID NO:3) or 74-103 (SEQ ID NO:4) of murine SAA2.1, respectively. Following 3 hours incubation with the above media, [^14C]-oleate was added and the cells were incubated for another 3 hour period (Mendez et al. J. Clin. Invest. 1994 94:1698-1705; Oram et al. Arterioscler. Thromb. 1991 11:403-414). Cells were chilled on ice and washed twice with PBS-BSA and twice with PBS. After addition of [^3H]-cholesteryl oleate (6000 dpm/well) as an internal standard, the lipids were extracted from the labeled cells and analyzed by thin-layer chromatography as described by Mendez et al. (J. Clin. Invest. 1994 94:1698-1705) and Oram et al. (Arterioscler. Thromb. 1991 11:403-414). The radioactivity in appropriate spots was measured to determine the incorporation of radioactivity into cholesteryl esters as a measure of acyl CoA:cholesterol acyl transferase activity.

[4] = system: [3H]-cholesterol-loaded J774 macrophages; experiment: In vivo cholesterol efflux to plasma in mice injected with [3H]-cholesterol-loaded J774 macrophages
Description: In these experiments, in vivo cholesterol export was determined in mice injected with J774 macrophages cholesterol-loaded with RBC membranes and [^3H]-cholesterol. Two hundred thousand macrophages in 100:1 PBS were injected into each mouse through the tail vein. At various time points thereafter, approximately 25:1 of blood were collected from the tail vein of each animal into heparinized capillary tubes. The tubes were then centrifuged for 5 minutes in an Adams Autocrit Centrifuge to separate red blood cells from plasma. Cholesterol efflux was determined by measuring the appearance of [^3H]-cholesterol in plasma by scintillation spectrometry. To study whether export of cholesterol from J774 cells to plasma was influenced by non-liposome formulated D-27mer peptide (SEQ ID NO:10), 24 hours after injection of cholesterol-loaded J774 macrophages into mice, the same animals received, by intravenous injection, 30 μg, 60 μg, 150 μg, 225 μg, 300 μg or 600 μg of D-27mer. All these amounts of D-peptides were dissolved in 100:l of phosphate buffered saline and injected through the tail vein of each animal.
Additional in vivo studies have also been conducted wherein mice were first injected intravenously with [^3H]cholesterol-laden macrophages and then injected 24 hours later with liposomes containing 0.5 μM of synthetic peptides corresponding to amino acid residues 1-20, 21-50, 51-80 or 74-103 of murine SAA2.1. Results from this study are depicted in FIG. 1. At time points indicated in the graph of FIG. 1, approximately 25 μl of blood were collected from the tail vein of each animal. The blood samples were centrifuged to separate the red blood cells from the plasma and the [^3H]-cholesterol in plasma was determined by scintillation counting. Results are mean±SEM of four determinations.
To determine cholesterol export in vivo, J774 macrophages were cholesterol-loaded with red blood cell membranes and [^3H]-cholesterol as described above. Cells were washed four times with PBS/BSA and then detached from the culture dishes. Five million cells in 200 μl DMEM were injected into control mice or inflamed mice through the tail vein. At various time points, approximately 25 μl of blood were collected from the tail vein of each animal into heparinized capillary tubes and then centrifuged for 5 minutes in an Adams Autocrit Centrifuge to separate red blood cells from plasma. Cholesterol efflux was determined by measuring the appearance of [^3H]-cholesterol in plasma by scintillation spectrometry.
J774 cells cultured in 6-well plates were enriched with cholesterol by incubating with red blood cell (RBC) membrane fragments (175:g as cholesterol) that had been previously labeled with 0.5:Ci/ml [^3H]-cholesterol at 37° C. for 24 hours in 0.2% bovine serum albumin (BSA). After loading with the labelled RBC membrane for 6 hours, cells were then washed with phosphate-buffered saline/BSA (PBS/BSA) three times followed by an 18 hour equilibration period during which monolayers were exposed to DMEM/BSA. To determine cholesterol export in vivo, J774 macrophages were cholesterol-loaded with RBC membranes and [^3H]-cholesterol as described previously above. Cells were washed four times with PBS/BSA and then detached from the culture dishes. Two hundred thousand cells in 100:l PBS were injected into mice through the tail vein. At various time points thereafter, approximately 25:l of blood were collected from the tail vein of each animal into heparinized capillary tubes. These tubes were then centrifuged for 5 minutes in an Adams Autocrit Centrifuge to separate red blood cells from plasma. Cholesterol efflux was determined by measuring the appearance of [^3H]-cholesterol in plasma by scintillation spectrometry. […]

Question: “DQAANKWGRSGRDPNHFR [SEQ ID NO:26, residues 79-96 of human SAA2.1]” was tested. Which “cholesterol export enhancing activity relative to the human SAA1.1 78-96 containing liposomal formulation (FIG. 9)” value [1] did it give?
Answer: about half

Question: “QAANKWGRSGRDPNHFR [SEQ ID NO:27, residues 80-96 of human SAA2.1]” was tested. Which “cholesterol export enhancing activity, time course (FIG. 9)” value [1] did it give?
Answer: little to no cholesterol export enhancing activity

Question: With “VWAAEKISDGREAFQEFFGRGHEDTIADQE [SEQ ID NO:3, synthetic peptide, residues 51-80 of murine SAA2.1]” as the sequence, how does the “rate of [3H]cholesterol efflux into medium containing HDL” value [1] read?
Answer: did not cause any significant changes

Question: What about the “rate of hydrolysis of [14C]-labeled cholesteryl oleate versus protein-free liposomes” value [2] of the same sequence?
Answer: no significant differences

Question: What about the “relative acyl CoA:cholesterol acyl transferase activity” value [3] of the same sequence?
Answer: no significant effect

Question: What does the source list for “TDMKEANWKNSDKYFHARGNYDAAQRGPGG [SEQ ID NO:2, synthetic peptide, residues 21-50 of murine SAA2.1]”?
Answer: rate of [3H]cholesterol efflux into medium containing HDL [1]: did not cause any significant changes; rate of hydrolysis of [14C]-labeled cholesteryl oleate versus protein-free liposomes [2]: no significant differences; relative acyl CoA:cholesterol acyl transferase activity [3]: no significant effect

Question: For “RSFFSFLGEAFDGARDMWRAYSD [SEQ ID NO:6, synthetic peptide, residues 1-23 of human SAA1.1 and/or SAA2.1]”, which “[3H]-cholesterol efflux as plasma radioactivity (dpm) (FIG. 1)” value ([4]; intravenous liposomes containing 0.5 μM peptide, 24 hours after macrophages) is on record?
Answer: promoted in vivo cholesterol export

Question: How did the “cholesterol export enhancing activity, time course (FIG. 9)” value [1] turn out when “AANKWGRSGRDPNHFR [SEQ ID NO:28, residues 81-96 of human SAA2.1]” was run?
Answer: little to no cholesterol export enhancing activity

Question: Which results are given for “ADQEANRHGRSGKDPNYYRPPGLPAKY [SEQ ID NO:10] ([dA][dD][dQ][dE][dA][dN][dR][dH]G[dR][dS]G[dK][dD][dP][dN][dY][dY][dR][dP][dP]G[dL][dP][dA][dK][dY]) [residues 77-103 of murine SAA1.1, all D-amino acids]”?
Answer: duration of increase in cholesterol efflux (FIG. 12) ([4]; following oral and intravenous administration): at least 4 days; radiolabeled cholesterol exported in the plasma (FIG. 15) ([4]; non-liposome formulated, in 100 μl PBS, intravenous, 15 μg/mouse peptide or 75 μg/mouse full length protein): caused an increase in cholesterol exported in the plasma; [3H]-cholesterol efflux as plasma radioactivity (dpm) (FIG. 11) ([4]; non-liposome formulated, in PBS, intravenous, 30 to 600 μg per mouse): dose-dependent increase; efficacy on oral administration to fasted animals versus animals receiving food (FIG. 16) ([4]; non-liposome formulated, oral, 300 μg): further enhanced; cholesterol exported to the plasma at 24 hours, PBS containing 5% weight/volume glucose versus PBS (FIG. 13) ([4]; non-liposome formulated, oral, same dose): higher; efficacy with smaller volume vehicle containing the same amount of peptide (FIG. 16) ([4]; oral, 300 μg in 100 μl versus 500 μl PBS, fasted and fed mice): efficacy was enhanced

Question: Which “cholesterol export enhancing activity relative to the human SAA1.1 78-96 containing liposomal formulation (FIG. 9)” value [1] does the source give for “ADQAANKWGRSGRDPNHFR [SEQ ID NO:11, residues 78-96 of human SAA2.1]” here?
Answer: about half
